As a reminder, the Kd is the free concentration of one partner at which half of the binding sites on the other are occupied at equilibrium, for simple one-to-one binding. A word on the LD50: it is the dose at which mortality reaches 50%.

Series [1] is described as follows: Phenylalanine clearance by PAL-expressing mouse epidermal keratinocytes in vitro. In kind it is cell-based. An excerpt:
Therefore, using CRISPR-mediated genome editing with epidermal progenitor cell technology the possibility for treatment of PKU by cutaneous expression of PAL is investigated.
A complete phenotypic change from brown hair coat to dark black fur is also expected. For tissue enzymatic analysis, PAL activity detection in grafted skin is expected but not in other tissues. PAH activity is absent in the liver of the mutant mice. Female mice are more resistant to PKU therapy. If this is the case for cutaneous gene therapy, female PAH mutant mice are tested to determine whether they require larger skin grafts or more grafts than male mice for correction of hyperphenylalaninemia.

The test system of series [2] is mouse epidermal stem cells. In words: Cell proliferation and differentiation of engineered mouse epidermal cells in vitro (cell cycle FACS, calcium shift western blot). In kind it is cell-based. The protocol: Primary human neonatal epidermal keratinocytes were obtained from Thermo Fischer® (C0015C), and cultured with Epilife® medium (Thermo Fischer, M-EPICF-500) with manufacturer's recommended procedures. Calcium shift was performed to induce differentiation of primary keratinocytes by increasing the calcium concentration in culture media to 1.5 mM.
Propidium iodide (PI) staining followed by flow cytometry were used to determine the effect of cell cycle profiles. Mouse and human epidermal cells were cultured in two 6 cm cell culture dish for 24 hours, respectively. Cells were trypsinized, and 1×10^5 cells from each dish were collected, followed by one PBS wash. […] After staining, the cells were analyzed immediately using flow cytometer BD FACSCanto™ II (BD Biosciences, San Jose, CA) with an excitation wavelength at 488 nm and emission at 585 nm. DNA content and histograms of cell cycle distribution were analyzed using FlowJo™ software, version 10 (FLOWJO LLC, OR).
Western blotting was performed as described previously (Blanpain et al.). […] Visualization and quantification was carried out with the LI-COR Odyssey® scanner and software (LI-COR Biosciences).
Propidium iodide (PI) staining followed by flow cytometry were used to determine the effect of cell cycle profiles. […] DNA content and histograms of cell cycle distribution were analyzed using FlowJo™ software, version 10 (FLOWJO LLC, OR). […]

A short description of series [3]: PKU mouse model (PAH mutant, BTBR strain) grafted with PAL-expressing cells: plasma phenylalanine, fur color, tissue enzyme activity. The note with it: PAH mutant mice, ~2 mM plasma phenylalanine. In kind it is in vivo. An excerpt: The mouse model of PKU has been developed by ENU (N-ethyl-N-nitrosourea)-mediated mutagenesis in BTBR strain (Jax strain 002232).
With establishment of skin engraftment in PAH mutant mice, plasma phenylalanine level are monitored. Three weeks post skin grafting with PAL expressing cells or control cells (BTBR epidermal progenitor cells treated with control vectors), blood samples are collected from the tail clipping biweekly for up to 30 weeks. Plasma is separated by centrifugation. Phenylalanine concentration is determined by established fluorometric protocol. Lowering of phenylalanine level restores melanin biosynthesis, and leads to a change of fur color. Potential alteration in fur coat color is recorded weekly for all the grafted animals. […] Thus, two different cohorts of animals (male and female) are established to test the potential gender-dependent effect of cutaneous gene therapy in vivo.
At the endpoint of the experiment (30 weeks), grafted animals are euthanized and tissue samples (grafted skin, host skin, and liver) are collected. Presence of enzyme activity in the tissues is determined by PAH and PAL activity assay.
A complete phenotypic change from brown hair coat to dark black fur is also expected. For tissue enzymatic analysis, PAL activity detection in grafted skin is expected but not in other tissues. PAH activity is absent in the liver of the mutant mice. […]

The target in another series is T1, GLP-1 receptor (Mus musculus, UniProt O35659).
T1 construct: host or cells: living mice (endogenous receptor)
T1 sequence (O35659 22-463): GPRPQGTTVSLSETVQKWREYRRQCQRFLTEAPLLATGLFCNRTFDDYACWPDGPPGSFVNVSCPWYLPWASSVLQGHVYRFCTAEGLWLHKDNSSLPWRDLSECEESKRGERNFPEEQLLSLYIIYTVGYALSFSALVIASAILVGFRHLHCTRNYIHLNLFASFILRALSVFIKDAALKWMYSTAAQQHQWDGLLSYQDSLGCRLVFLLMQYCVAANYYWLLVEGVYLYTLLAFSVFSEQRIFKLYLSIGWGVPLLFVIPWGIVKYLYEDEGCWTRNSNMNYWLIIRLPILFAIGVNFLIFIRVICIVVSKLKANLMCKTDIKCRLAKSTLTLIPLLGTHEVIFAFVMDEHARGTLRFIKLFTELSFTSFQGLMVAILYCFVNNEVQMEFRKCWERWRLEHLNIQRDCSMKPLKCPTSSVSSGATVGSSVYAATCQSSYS
The note with it: mice; cited from earlier work.

The conditions of series [4]: WT GGBP; read-out: glucose binding affinity (Kd); cited from earlier work.
Series [5] concerns epidermal progenitor cells. In words: Suicide gene-induced cell death in epidermal progenitor cells upon prodrug treatment. Particulars: ganciclovir and 5-fluorocytosine, respectively; data not shown. In kind it is cell-based. The source says:
To test this possibility, a Rosa26 targeting vector encoding phenylalanine ammonia lyase (PAL) (SEQ ID NO: 51) together with inducible “suicide” genes HSV-TK (Herpes Simplex Virus Thymidine Kinase) (SEQ ID NO: 52) and yCD (yeast cytosine deaminase) (SEQ ID NO: 53) was used for epidermal progenitor cell transfection.

For series [6] the following is noted: i.p., mice; cited from earlier work.
Series [7] is described as follows: Acute drug overdose test: cocaine-induced lethality. In kind it is in vivo, mouse. The protocol:
For all behavioral experiments except where noted, C57BL/6J mice were used. Roughly equal numbers of adult male and female mice were group-housed until surgery. Mice were maintained under controlled temperature and humidity conditions on a 12 h:12 h light:dark cycle (lights on at 7:00). Water and food were available ad libitum. Mice weighed around 25-30 g at the beginning of the experiments. All procedures followed National Institutes of Health Guide for the Care and Use of Laboratory Animal and were approved by the University of Chicago Institutional Animal Care and Use Committee.
Drug: Cocaine HCl and methamphetamine HCl (Sigma-Aldrich, Saint Louis, MO) were dissolved in sterile saline and delivered intraperitoneally at appropriates doses in a volume of 10 mL/kg. Ethanol (Sigma-Aldrich, Saint Louis, MO, 95%, density=0.816) was prepared in 20% (v/v) diluted in sterile saline and delivered intraperitoneally at appropriate doses. Vehicle (sterile saline) was intraperitoneally administered at 10 mL/kg as a control.
Acute drug overdose test: Two weeks after grafting surgery, 4 groups of GhBChE and 4 groups of GWT mice (n=8 each in each group) received i.p. injections of cocaine at […]. As a control, 4 groups of GhBChE and 4 groups of GWT mice (n=8 each) received i.p. injections of methamphetamine (METH) at 34, 68 (LD50), 100, and 160 mg/kg. Two each of GhBChE and GWT mice with CD1 mice as hosts were also used to videotape acute cocaine (80 mg/kg) induced behaviors. Mice were monitored for 2 h following injection and percent of cocaine- and METH-induced lethality was calculated.
To first determine whether engrafting hBChE-expressing cells protects mice from acute systemic toxicity of cocaine, we delivered different doses of cocaine to grafted mice and calculated the lethality rates of cocaine. […] Parallel testing was conducted to test the toxicity of a related stimulant METH (methamphetamine) in GhBChE and GWT mice.

Regarding “PAL: Phenylalanine ammonia-lyase (SEQ ID NO: 51) expressed in epidermal keratinocytes”, the “degradation of phenylalanine in culture media compared with PAH” value in series [1] (lentivirus-infected mouse epidermal keratinocytes, preliminary) was “much faster than cells expressing PAH”. For the same molecule, the “phenylalanine removal by grafts” value in series [1] (two 1 cm^2 epidermal grafts, ~2×10^7 metabolically active cells) was 57 pmol of phenylalanine per day. Besides, the “effect of expression on cell proliferation / differentiation in vitro” value in series [2] is recorded as “does not significantly alter cell proliferation or differentiation in vitro”. Further, the effect on hyperphenylalaninemia entry in series [3] is “sufficient for a complete reversal of hyperphenylalaninemia”. As for Exendin-4, in the series with GLP-1 receptor, the “effect on nicotine-induced behaviours” value is “attenuates nicotine-induced locomotor stimulation, accumbal dopamine release, and the expression of conditioned place preference in mice”. Turning to “WT (wild type) GGBP: wild type glucose/galactose-binding protein of E. coli periplasm”, the Kd in series [4] is 0.2 µM. For “HSV-TK: inducible suicide gene, Herpes Simplex Virus Thymidine Kinase (SEQ ID NO: 52), prodrug ganciclovir”, the “cell death upon prodrug treatment” value in series [5] is “efficiently induced cell death upon treatment with prodrugs”. For the molecule `CN[C@@H](C)Cc1ccccc1` [METH, methamphetamine], in series [6], the LD50 is reported as 68 mg/kg. Take `COC(=O)[C@H]1[C@@H](OC(=O)c2ccccc2)C[C@@H]2CC[C@H]1N2C` [cocaine]: the lethality entry in series [7] (80 mg/kg i.p., control mice grafted with WT epidermal cells (GWT)) is listed as “roughly 50%”; in series [7] (120 mg/kg i.p., GWT mice), 100%; in series [7] (160 mg/kg i.p., GWT mice), 100%.

(Values after US20230392126A1, “TISSUE ORGANOIDS” (priority 2016, published 2023).)
